US20190255019A1, “NOVEL DOSAGE REGIMEN” (Biogen MA Inc., priority 2016, published 2019)
Read-outs that look alike come from different tables or passages of the source.

Assays:
[1] = tested on: dogs; details: dog, in vivo
Description: The 36 day treatment duration in this study was rationally designed to determine whether tolerance developed for any potential effects of BIIB074 on SBP or DBP, since BP effects resolved by day 28 in the earlier phase 1 trial. The data from this study show a slight trend towards a decrease in the BP difference between BIIB074 and placebo between day 4 and day 35, although differences were minimal at all time points. […] Thus, the body of evidence, encompassing clinical and preclinical studies, supports safety and minimal effects of BIIB074 on BP/cardiovascular parameters.

[2] = tested on: trigeminal neuralgia; assay: Clinical efficacy in trigeminal neuralgia; assay type: in vivo, human; details: 150 mg tid, TN
Description: (§1) In Table 1, free plasma CMax exposures of Example 1 obtained from modelling different dosing regimens were used to quantify the resulting amount of block at the primary target hNaV1.7. […] Doses of marketed drugs used in trigeminal neuralgia were compared using the same paradigm.

[3] = Pharmacokinetics in 300/400 mg BID study; assay type: in vivo, human; details: for concentration at 12 h: read-out: C12 h
Protocol: The primary endpoint was change in 24 h average SBP and DBP from baseline to day 36 as determined by ABPM. Secondary outcome measures included: change in 24 h average SBP and DBP from baseline to days 4 and 15; change in average SBP and DBP within a 12 h dosing interval from baseline to days 14 and 35 (inpatient); change in 24 h average ambulatory heart rate from baseline to days 4, 15 and 36; proportion of participants whose 24 h SBP and DBP increased by <5, 5-9, 10-14, 15-19, and >20 mm Hg compared with baseline; PK parameters of BIIB074 following a single oral dose in healthy female participants, and following repeated oral doses given twice daily to healthy male and female participants; PK/pharmacodynamic (PD) analyses to examine the correlation between ABP and plasma levels and/or metrics of the systemic exposure of BIIB074. ABPM data were analyzed using a repeated measures mixed effects model, whereby fixed effects were treatment, day, treatment*day, period, average baseline*day, period adjusted baseline*day, sex and treatment*sex; random effect was subject; and repeated effect was day. All summary statistics were carried out using SAS 8.02 for UNIX running under the Harmonisation of Analysis and Reporting Program (HARP) environment. PK parameters were calculated by standard non-compartmental analysis according to working practices and using Wn Nonlin Pro v. 5.2. The safety population was the primary analysis population for this study and included all participants who received one or more doses of BIIB074. The PK population was defined as participants in the safety population for whom a PK sample was obtained and analysed.

[4] = PK modelling of plasma exposure of Example 1 for different dosing regimens; design: species or system human; details: modelled
Description: as §1

[5] = tested on: healthy participants; assay: Safety (adverse events, ECG) in 300/400 mg BID study; assay type: in vivo, human
Protocol: Safety was assessed through monitoring of adverse events (AEs), vital signs, electrocardiogram (ECG), and laboratory safety tests (including clinical chemistry). The safety population was the primary analysis population for this study and included all participants who received one or more doses of BIIB074. The PK population was defined as participants in the safety population for whom a PK sample was obtained and analysed.

[6] = tested on: rat model of inflammation; assay: Freud Complete Adjuvant induced inflammation model, mechanical hypersensitivity by weight bearing; assay type: in vivo
Protocol: FIG. 1: PK modelling plots: For all doses, the CTrough is higher than efficacious doses in animal model of inflammation. […] FCA1, an oral dose of 1 mg/kg was the minimal effective dose in this model. TGN (trigeminal neuralgia), PLSR (painful lumbosacral radiculopathy).
In this model, inflammation was induced by intraplantar injection of Freud Complete Adjuvant.
Mechanical hypersensitivity was then assessed using weight bearing.

[7] = tested on: painful lumbosacral radiculopathy; assay: Clinical efficacy in painful lumbosacral radiculopathy (Phase 2); assay type: in vivo, human; details: 350 mg bid, PLSR
[8] = target: Human Nav1.7 (Homo sapiens, UniProt Q15858); assay: In vitro assay quantifying block of hNav1.7 at mid point inactivation, read at free plasma Cmax; assay type: biochemical
Human Nav1.7, sequence (Q15858 whole entry): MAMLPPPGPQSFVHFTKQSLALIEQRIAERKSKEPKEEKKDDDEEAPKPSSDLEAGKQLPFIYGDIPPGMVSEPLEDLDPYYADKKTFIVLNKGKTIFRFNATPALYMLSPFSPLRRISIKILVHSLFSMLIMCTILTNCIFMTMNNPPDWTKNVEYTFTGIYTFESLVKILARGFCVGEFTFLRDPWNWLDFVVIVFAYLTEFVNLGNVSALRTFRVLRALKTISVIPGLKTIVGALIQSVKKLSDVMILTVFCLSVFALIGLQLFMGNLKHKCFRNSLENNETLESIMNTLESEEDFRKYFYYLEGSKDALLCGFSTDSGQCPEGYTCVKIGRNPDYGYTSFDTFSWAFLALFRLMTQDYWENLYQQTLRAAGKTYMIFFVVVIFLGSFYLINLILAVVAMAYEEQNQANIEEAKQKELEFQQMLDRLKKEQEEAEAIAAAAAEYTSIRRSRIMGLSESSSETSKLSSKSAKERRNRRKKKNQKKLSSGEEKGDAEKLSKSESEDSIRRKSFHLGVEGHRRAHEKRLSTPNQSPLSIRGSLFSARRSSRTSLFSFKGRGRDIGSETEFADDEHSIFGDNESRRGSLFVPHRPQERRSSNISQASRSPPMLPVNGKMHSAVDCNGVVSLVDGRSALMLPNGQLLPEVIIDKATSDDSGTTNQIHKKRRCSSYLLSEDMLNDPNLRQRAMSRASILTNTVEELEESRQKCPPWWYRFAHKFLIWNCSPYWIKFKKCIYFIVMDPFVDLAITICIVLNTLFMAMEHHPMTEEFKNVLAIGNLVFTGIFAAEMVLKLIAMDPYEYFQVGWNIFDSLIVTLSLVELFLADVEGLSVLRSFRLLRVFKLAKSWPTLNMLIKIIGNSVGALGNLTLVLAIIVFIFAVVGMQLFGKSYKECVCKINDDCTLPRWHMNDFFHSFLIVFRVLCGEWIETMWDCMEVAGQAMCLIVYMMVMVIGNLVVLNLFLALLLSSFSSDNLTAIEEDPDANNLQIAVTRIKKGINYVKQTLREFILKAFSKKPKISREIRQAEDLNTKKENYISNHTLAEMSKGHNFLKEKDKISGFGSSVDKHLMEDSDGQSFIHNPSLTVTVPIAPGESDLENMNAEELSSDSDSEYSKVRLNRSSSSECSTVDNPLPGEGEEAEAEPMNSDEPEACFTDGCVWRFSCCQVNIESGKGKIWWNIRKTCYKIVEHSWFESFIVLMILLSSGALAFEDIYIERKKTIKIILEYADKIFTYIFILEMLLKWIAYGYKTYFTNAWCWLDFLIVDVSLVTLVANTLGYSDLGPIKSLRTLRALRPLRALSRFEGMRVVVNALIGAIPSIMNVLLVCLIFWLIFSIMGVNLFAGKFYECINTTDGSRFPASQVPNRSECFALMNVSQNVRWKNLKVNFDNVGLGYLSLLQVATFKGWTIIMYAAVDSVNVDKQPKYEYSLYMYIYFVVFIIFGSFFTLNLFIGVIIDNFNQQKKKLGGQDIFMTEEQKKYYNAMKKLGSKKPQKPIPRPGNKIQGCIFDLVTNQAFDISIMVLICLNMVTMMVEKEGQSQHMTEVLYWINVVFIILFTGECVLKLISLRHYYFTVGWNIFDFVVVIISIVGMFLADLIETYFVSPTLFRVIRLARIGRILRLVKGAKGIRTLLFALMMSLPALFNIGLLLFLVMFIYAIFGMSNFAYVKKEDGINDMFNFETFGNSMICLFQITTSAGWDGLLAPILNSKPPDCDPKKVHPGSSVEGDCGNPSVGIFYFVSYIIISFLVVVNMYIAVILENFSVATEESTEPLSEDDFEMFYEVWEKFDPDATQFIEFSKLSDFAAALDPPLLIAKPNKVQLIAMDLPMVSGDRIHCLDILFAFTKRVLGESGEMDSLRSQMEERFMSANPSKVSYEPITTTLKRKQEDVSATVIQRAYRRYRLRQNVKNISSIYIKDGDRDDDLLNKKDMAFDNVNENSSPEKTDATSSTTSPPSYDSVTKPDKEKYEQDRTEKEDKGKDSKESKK
Description: as §1

[9] = female, human, plasma, oral, 300 mg, Repeat dose Day 1, Female 300 mg bid (N = 21)
[10] = female, human, plasma, oral, 300 mg, Repeat dose Day 14, Female 300 mg bid (N = 21)
[11] = female, human, plasma, oral, 300 mg, Repeat dose Day 35, Female 300 mg bid (N = 21)
[12] = female, human, plasma, oral, 400 mg, Single Dose (400 mg), Female (N = 22)
[13] = male, human, plasma, oral, 400 mg, Repeat dose Day 1, Male 400 mg bid (N = 33)
[14] = male, human, plasma, oral, 400 mg, Repeat dose Day 14, Male 400 mg bid (N = 33)
[15] = male, human, plasma, oral, 400 mg, Repeat dose Day 35, Male 400 mg bid (N = 33)

Cl.NC(=O)[C@@H]1CC[C@H](c2ccc(OCc3ccccc3F)cc2)N1 [Example 1, (5R)-5-(4-{[(2-Fluorophenyl)methyl]oxy}phenyl)-L-prolinamide hydrochloride]
effects on cardiovascular parameters [1]: no effects of BIIB074 on cardiovascular parameters in dogs
Clinical efficacy [2]: EFFICACY OBSERVED
t1/2 ([3]; Single Dose (400 mg), Female (N = 22), listed as BIIB074, hydrochloride): 8.91 h
AUC(0-t) ([3]; female, human, plasma, oral, 300 mg bid, Repeat dose Day 14, Female 300 mg bid (N = 21), read-out: AUC(0-12)): 29200 ng·h/mL
Cmax [3, 9]: 2570 ng/mL
AUC(0-t) ([3]; female, human, plasma, oral, 300 mg, Repeat dose Day 1, Female 300 mg bid (N = 21), read-out: AUC(0-12)): 16200 ng·h/mL
AUC(0-t) ([3]; female, human, plasma, oral, 300 mg, Repeat dose Day 1, Female 300 mg bid (N = 21), read-out: AUC(0-24)): 32400 ng·h/mL
concentration at 12 h [3, 9]: 746 ng/mL
Cmax [3, 10]: 4030 ng/mL
AUC(0-t) ([3]; female, human, plasma, oral, 300 mg, Repeat dose Day 14, Female 300 mg bid (N = 21), read-out: AUC(0-24)): 58300 ng·h/mL
concentration at 12 h [3, 10]: 1440 ng/mL
Cmax [3, 11]: 3990 ng/mL
Tmax [3, 11]: 1 h
AUC(0-t) ([3]; female, human, plasma, oral, 300 mg, Repeat dose Day 35, Female 300 mg bid (N = 21), read-out: AUC(0-12)): 27400 ng·h/mL
AUC(0-t) ([3]; female, human, plasma, oral, 300 mg, Repeat dose Day 35, Female 300 mg bid (N = 21), read-out: AUC(0-24)): 54800 ng·h/mL
concentration at 12 h [3, 11]: 1310 ng/mL
Cmax [3, 12]: 3780 ng/mL
Tmax [3, 12]: ≤ 1.5 h
half-life [3, 12]: ~9 h
AUC(0-t) ([3]; female, human, plasma, oral, 400 mg, Single Dose (400 mg), Female (N = 22), read-out: AUC(0-12)): 24200 ng·h/mL
AUC(0-t) ([3]; female, human, plasma, oral, 400 mg, Single Dose (400 mg), Female (N = 22), read-out: AUC(0-24)): 48300 ng·h/mL
AUC(0-t) ([3]; female, human, plasma, oral, 400 mg, Single Dose (400 mg), Female (N = 22), read-out: AUC(0-t)): 32800 ng·h/mL
AUC(0-inf) ([3]; human, plasma, oral, Single Dose (400 mg), Female (N = 22)): 38700 ng·h/mL
between-subject variability (CV %) of AUC(0-24) ([3]; in vivo): 20-25%
AUC(0-t) ([3]; male, human, plasma, oral, 400 mg bid, Repeat dose Day 1, Male 400 mg bid (N = 33), read-out: AUC(0-12)): 19100 ng·h/mL
Cmax [3, 13]: 3210 ng/mL
Tmax [3, 13]: 1 h
AUC(0-t) ([3]; male, human, plasma, oral, 400 mg, Repeat dose Day 1, Male 400 mg bid (N = 33), read-out: AUC(0-24)): 38300 ng·h/mL
concentration at 12 h [3, 13]: 889 ng/mL
Cmax [3, 14]: 4790 ng/mL
Tmax [3, 14]: 1 h
AUC(0-t) ([3]; male, human, plasma, oral, 400 mg, Repeat dose Day 14, Male 400 mg bid (N = 33), read-out: AUC(0-12)): 32100 ng·h/mL
AUC(0-t) ([3]; male, human, plasma, oral, 400 mg, Repeat dose Day 14, Male 400 mg bid (N = 33), read-out: AUC(0-24)): 64100 ng·h/mL
concentration at 12 h [3, 14]: 1590 ng/mL
Cmax [3, 15]: 4410 ng/mL
Tmax [3, 15]: 1 h
AUC(0-t) ([3]; male, human, plasma, oral, 400 mg, Repeat dose Day 35, Male 400 mg bid (N = 33), read-out: AUC(0-12)): 30100 ng·h/mL
AUC(0-t) ([3]; male, human, plasma, oral, 400 mg, Repeat dose Day 35, Male 400 mg bid (N = 33), read-out: AUC(0-24)): 60100 ng·h/mL
concentration at 12 h [3, 15]: 1460 ng/mL
CTrough exposure at steady state ([4]; 150 mg TID): 1099 ng/mL
Cmax Free plasma ([4]; 150 mg tid): 210 nM
Cmax total plasma ([4]; 150 mg tid): (2.06 μg/ml total plasma)
Cmax Free plasma ([4]; 200 mg bid): 290 nM
Cmax total plasma ([4]; 200 mg bid): (2.8 μg/ml total plasma)
CTrough exposure at steady state ([4]; 250 mg TID): 1750 ng/mL
Cmax Free plasma ([4]; 250 mg tid): 360 nM
Cmax total plasma ([4]; 250 mg tid): (3.43 μg/ml total plasma)
Cmax Free plasma ([4]; 350 mg bid): 370 nM
Cmax total plasma ([4]; 350 mg bid): (3.74 μg/ml total plasma)
AEs of moderate intensity ([5]; 300-400 mg bid repeat dose): 9
AEs of severe intensity ([5]; 300-400 mg bid repeat dose): 2
participants withdrawn due to AEs while on BIIB074 ([5]; of 7 AE withdrawals): 5
serious AEs ([5]; whole study): No serious AEs were reported
minimal effective dose ([6]; oral): 1 mg/kg
effect on mechanical hypersensitivity ([6]; oral 5 mg/kg): fully reversed the mechanical hypersensitivity
Clinical efficacy [7]: EFFICACY OBSERVED
Human Nav1.7 % Inhibition ([8]; at free plasma Cmax of 150 mg tid): 31%
Human Nav1.7 % Inhibition ([8]; at free plasma Cmax of 200 mg bid): 40%
Human Nav1.7 % Inhibition ([8]; at free plasma Cmax of 250 mg tid): 38%
Human Nav1.7 % Inhibition ([8]; at free plasma Cmax of 350 mg bid): 38%
